From US7608640B2, “Glycine betaine and its use” (priority 2001, dated 2009)
Values joined by “and” are separate entries in the source; they are usually repeats but may differ in a detail not shown here. Equal entries are not always repeated.

Tests used:
[1] = test system: platelet aggregations induced by ADP, collagen, epinephrine, adrenaline, thrombin, ristocetine, arachidonic acid; experiment: Human in vivo test, induced platelet aggregations in heavy smokers; settings: two heavy smokers, oral capsules 5 g/day during 7 days
Experimental: This example describes a human in vivo test. Two volunteers (with a weight of about 70-75 kg), considered as heavy smokers (smoking more than 10 cigarettes/day) have orally taken capsules (gastro soluble) containing 5 g anhydrous glycine betaine/day during 7 days. Before administration of the betaine, the aggregations induced by ADP, by collagen, by epinephrine, by adrenaline, by thrombin, by ristocetine and by arachidonic acid were determined. After one week of treatment, the same platelet aggregations were measured. It appeared from said tests that all the induced platelet aggregations were reduced for all said endogenous agonists of at least 30%. Better results are expected when using oral dosage form with controlled release, such as gastro insoluble, but entero soluble form.

[2] = test system: platelet aggregation induced with ADP; experiment: Aggregation induced with ADP; format: in vivo, rat; settings: ADP 5 μM
Experimental: (§1) The aggregation is made in accordance to the methods of Cardinal & Flower. Pharmacol. Method. 1980, and to American Journal of Clinical Pathology, 1989; 92: 676-679, Sureney. J D. Whole Blood aggregometry. After a keeping period of 8 days, the rats are subjected to a fasting for 12 hours. Betaine is subcutaneously injected one hour before blood sampling. The rats are then anaesthetised with sodium Thiopental administered at a dose of 200 mg/Kg and the blood samples are taken by intracardiac puncture on a trisodium citrate solution (1 volume of solution at 3.8% citrate for 9 volumes of blood).
• This example evaluated aggregation induced with ADP. • Final ADP concentration 5 μM

[3] = value taken for the deconvolution technique; cited from earlier work
[4] = test system: platelet aggregation induced with collagen; experiment: Aggregation induced with collagen; format: in vivo, rat; settings: collagen 10 μgr/ml
Experimental: as §1
• This example evaluates aggregation induced with collagen. • Collagen concentration 10 μgr/ml

[5] = test system: arterial thrombosis induced by laser beam in the mesenteric microcirculation of the rat; experiment: Laser-induced thrombosis in the mesenteric microcirculation; format: in vivo; settings: oral 50 mg/kg
[6] = test system: induced haemorrhage in rats; experiment: Anti-haemorrahgic activity with aspirin or heparin; format: in vivo, rat; settings: glycine betaine 2-50 mg given with 100 mg aspirin or 2 mg heparin, versus aspirin or heparin alone
Experimental: This example tested anti-haemorrahgic activity using rats. Some rats received an active agent with haemorrahgic side effect, while other rats received said active agent together with a dose of betaine.
The following products were administered to rats for determining whether glycine betaine has an anti-haemorrahgic effect: • 100 mg aspirin per kg life body • 100 mg aspirin+50 mg glycine betaine per kg life body • 2 mg heparin • 2 mg heparin+50 mg glycine betaine • 2 mg heparin+10 mg glycine betaine • 2 mg heparin+2 mg glycine betaine

[7] = test system: coagulation factors; experiment: Plasminogenesis, coagulation and anti Xa in the stasis-induced thrombosis model; format: in vivo, rat
Experimental: A laparotomy was performed to open the lower vena cava, on which a ligature was placed at T0, followed by subcutaneous injection of glycine betaine at T0+2 hours, followed by withdrawal of the clot and blood samples at T0+6 hours.

[8] = test system: coagulation (Fibrinogen, APTT, Prothrombin Time, Anti-Xa activity); experiment: Plasma fibrinogen, APTT, prothrombin time and anti-Xa in heparinized rat; format: in vivo; settings: Example 37
From the text: This example investigated the effect of delayed betaine administration in an antidote type administration inhibited the bleeding time and volume of blood loss induced by heparin treatment in a rat. Twenty male Wistar rats were purchased from Charles River, France and were acclimated for one week prior to the tests. Each rat was weighed prior to testing (weights ranged from 240-340 g with a mean weight of 275 g) and divided into 2 groups of 10 animals each. One group received an injection of heparin (5 mg/kg) at T0. The second group received a heparin injection (5 mg/kg) at T0, and a betaine injection (10 mg/kg) at T0+30 minutes. Both groups were subjected to a bleeding test at T0+60 minutes. The testing was performed using the previously described methodology with slight modifications. The tails were sectioned at 5-8 mm from the extremity. After transection, the proximal end of the tail was placed in a tube and blood was permitted to drip freely into a reservoir of 3.8% citrate solution (1 ml) until bleeding stopped. Blood loss volumes were then determined using a 1000 μl pipette. At the end of the experiments, before euthanasia, blood was sampled by intracardiac puncture on Na-citrate (3.8%, 1:9) and centrifuged at 4000 rpm/min for 20 minutes in order to obtain Poor Platelet Plasma (PPP). Fibrinogen, APTT, Prothrombin Time (Quick) and Anti-Xa activity were determined using an Automatic Coagulation Laboratory ACL 200 (Instrumentation Laboratory, France). […] Betaine efficiency to reduce bleeding times was confirmed. The effect on the haemorrhage was also confirmed since there was a very significant reduction of the blood loss volumes when compared to the heparin group. The delayed administration of betaine after heparin treatment, designed to mimic an antidote mode of administration, almost restored the bleeding times and the volumes of blood loss in the 10 betaine-treated animals to normal.

[9] = test system: venous thrombosis induced by stasis (lower vena cava ligature); experiment: Stasis-induced venous thrombosis, clot weight; format: in vivo, rat
Experimental: B/Stasis-induced Thrombosis A laparotomy was performed to open the lower vena cava, on which a ligature was placed at T0, followed by subcutaneous injection of glycine betaine at T0+2 hours, followed by withdrawal of the clot and blood samples at T0+6 hours. Male Wistar rats were used for these tests. They weighed between 200 and 250 grams. After an 8-day stabilisation period, the rats were subjected to fasting for 12 hours. They were then anaesthetised, glycine betaine was administered subcutaneously, and the mesentery (laser) or vena cava (stasis) was opened at the end of the experiments.

[10] = betaine 10 mg/kg 30 minutes after heparin 5 mg/kg
[11] = heparin 5 mg/kg at T0, betaine 10 mg/kg at T0+30 minutes

With `C[N+](C)(C)CC(=O)O` [Glycine betaine] the “Reduction of induced platelet aggregations (all agonists)” value [1] was “at least 30%”, the Amplitude ([2]; 2.5 mg/kg) was 13 +/− 0.82 ohms and the Velocity ([2]; 2.5 mg/kg) was 5.75 +/− 0.96 ohm/minute. The Amplitude ([2]; 5 mg/kg) was 7.25 +/− 0.96 ohms, the Velocity ([2]; 5 mg/kg) was 4.75 +/− 0.5 ohm/minute and the Amplitude ([2]; 10 mg/kg) was 0 +/− 0 ohms. For the same compound, the Velocity ([2]; 10 mg/kg) was 0 +/− 0 ohm/minute, the Elimination half life [3] was 7.8 h and the Amplitude ([4]; 2.5 mg/kg) was 13.75 +/− 0.96 ohms. For the same compound, the Velocity ([4]; 2.5 mg/kg) was 9.25 +/− 2.63 ohm/minute, the Amplitude ([4]; 5 mg/kg) was 5.5 +/− 1.29 ohms and the Velocity ([4]; 5 mg/kg) was 4.5 +/− 1 ohm/minute. The Amplitude ([4]; 10 mg/kg) was 1.5 +/− 1.29 ohms, the Velocity ([4]; 10 mg/kg) was 2 +/− 0.82 ohm/minute and the Number of emboles ([5]; 1 hour) was 0 +/− 0. The Embolisation time ([5]; 48 hours) was 2 ± 0 min, the “Number of laser firing” value ([5]; 48 hours) was 2.33 +/− 0.57 and the “Bleeding time after induced haemorrhage” value [6] was “bleeding time was reduced”. The ACT ([7]; 1 mg/kg) was 29.1 ± 2.3 s, the “Anti Xa” value ([7]; 1 mg/kg) was 0.08 ± 0.1 units/ml and the Fibrinogen ([7]; 1 mg/kg) was 2.63 ± 0.3 g/L. It also gave a Plasminogenesis ([7]; 1 mg/kg) of 2.44 ± 0.58%, a Quick time ([7]; 1 mg/kg) of 16.2 ± 1.2 s and an ACT ([7]; 2.5 mg/kg) of 31.2 ± 2.6 s. For the same compound, the “Anti Xa” value ([7]; 2.5 mg/kg) was 0.14 ± 0.10 units/ml, the Fibrinogen ([7]; 2.5 mg/kg) was 2.2 ± 0.17 g/L and the Plasminogenesis ([7]; 2.5 mg/kg) was 2 ± 0.15%. The Quick time ([7]; 2.5 mg/kg) was 16.6 ± 0.7 s, the ACT ([7]; 5 mg/kg) was 33.5 ± 1.9 s and the “Anti Xa” value ([7]; 5 mg/kg) was 0.35 ± 0.15 units/ml. For the same compound, the Fibrinogen ([7]; 5 mg/kg) was 2.32 ± 0.33 g/L, the Plasminogenesis ([7]; 5 mg/kg) was 1.66 ± 0.58% and the Quick time ([7]; 5 mg/kg) was 15.6 ± 0.4 s. For the same compound, the “APTT prolongation despite betaine administration” value [8, 10] was “up to 6 ×”, the “Animals with normalized Prothrombin times” value [8, 10] was 8 out of 10 and the “Fibrinogen level change versus heparin” value [8, 10] was −10%. For the same compound, the “Fibrinogen level change versus the control” value [8, 10] was −23%, the “Reduction of Anti-Xa activity, antidote group compared to the heparin group” value [8, 10] was 74% and the Clot weight ([9]; 1 mg/kg s.c.) was 3.1 ± 0.4 mg. It also gave a Clot weight ([9]; 2.5 mg/kg s.c.) of 1.63 ± 0.76 mg and a Clot weight ([9]; 5 mg/kg s.c.) of 0.76 ± 0.4 mg.
In the case of Heparin, the “APTT, Mean” value [8, 11] is reported as greater than 180 s, the “APTT, individual rats” value [8, 11] is reported as greater than 180 s and the “Anti-Xa, Mean” value [8, 11] is reported as 1.37 IU/ml. For the same compound, the “Anti-Xa, individual rats” value [8, 11] was 1.35 IU/ml (2×) and 1.38 IU/ml (2×) and 1.37 IU/ml (2×) and 1.34 IU/ml and 1.41 IU/ml and 1.39 IU/ml (2×), the “Fibrinogen, Mean” value [8, 11] was 1.82 g/L and the “Fibrinogen, individual rats” value [8, 11] was 2.15 g/L and 1.77 g/L and 2.1 g/L and 1.53 g/L and 1.62 g/L and 2.0 g/L and 1.55 g/L and 1.67 g/L and 1.57 g/L and 2.2 g/L. The “Quick (Prothrombin Time), Mean” value [8, 11] was 61.07 s and the “Quick (Prothrombin Time), individual rats” value [8, 11] was 52.3 s and 57.4 s and 55.3 s and 66.2 s and 66.0 s and 59.6 s and 64.6 s and 67.2 s and 62.2 s and 59.9 s.
